Here are results for 8 molecules from PubChem BioAssay (NCI).

Test systems include ACHN renal; MCF7 breast; NCI-H226 lung; NCI/ADR-RES ovarian; OVCAR-3 ovarian; SF-268 CNS; SNB-19 CNS; UO-31 renal.
Holding throughout (test): DTP human tumour cell line panel, 48 h

Where “and” joins values, the source holds several entries; their conditions need not be identical. Equal entries are not always repeated.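 Following 48 hours of exposure in 96-well plates, responses at five concentrations were used to interpolate endpoints linearly. Abbreviation: GI50, concentration required for 50% inhibition of growth. At the TGI there is no net growth.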

For orientation: GI50 means the concentration at which growth is held to half of that of the control. For orientation: TGI means the concentration at which net growth stops. Higher therefore signals less potent growth arrest. Turning to `COc1ccc2[nH]c(O)c(C(=Nc3ccc(N(C)C(=O)CN4CCN(C)CC4)cc3)c3ccccc3)c2c1`, the GI50 in the assay with ACHN renal was 2.54 µM; in the assay with MCF7 breast, 0.725 µM; in the assay on NCI-H226 lung, 2.27 µM; with NCI/ADR-RES ovarian, 11.1 µM; in the assay on OVCAR-3 ovarian, 2.9 µM; with SF-268 CNS, 2.1 µM. For the same molecule, the GI50 with SNB-19 CNS was 3.72 µM; in the assay with UO-31 renal it was 1.45 µM. In addition, the TGI is 10.8 µM in the assay on ACHN renal; 3.62 µM in the assay on MCF7 breast; 15.6 µM in the assay with NCI-H226 lung; 29.7 µM in the assay on NCI/ADR-RES ovarian; 7.31 µM in the assay with OVCAR-3 ovarian; 7.55 µM in the assay on SF-268 CNS. Further, the results for the TGI with SNB-19 CNS and in the assay with UO-31 renal were 10.7 µM and 8.45 µM, respectively.
In the case of `Cc1nc2sccn2c1-c1csc(Nc2cccc(Cl)c2C)n1`, the GI50 is 6.84 µM in the assay on ACHN renal; 3.34 µM in the assay on MCF7 breast; 3.24 µM with NCI-H226 lung; 3.45 µM with NCI/ADR-RES ovarian; 5.23 µM in the assay on OVCAR-3 ovarian; 11.9 µM in the assay with SF-268 CNS. Further, the GI50 in the assay with SNB-19 CNS was 12.6 µM; in the assay on UO-31 renal it was 3.05 µM. The TGI is over 100 µM in the assay on ACHN renal; 25.6 µM in the assay on MCF7 breast; 48.5 µM with NCI-H226 lung; 45.2 µM in the assay on NCI/ADR-RES ovarian; 32.2 µM in the assay with OVCAR-3 ovarian; 74.4 µM with SF-268 CNS. Besides, the TGI with SNB-19 CNS is over 100 µM; in the assay on UO-31 renal, 23.7 µM.
With `C=CC(=O)Nc1cc2c(Nc3ccc(F)c(Cl)c3)ncnc2cc1OCCCN1CCOCC1`, the 50% growth inhibitory concentration (GI50) in the assay with ACHN renal is < 0.01 µM and 0.0448 µM; with MCF7 breast, 1.32 µM and 2.52 µM; with NCI-H226 lung, 2.08 µM and > 6.11 µM; in the assay with NCI/ADR-RES ovarian, 1.71 µM and 2.36 µM; with OVCAR-3 ovarian it was 1.52 µM and 1.3 µM; in the assay on SF-268 CNS it was 1.77 µM and 3.47 µM. Also, the GI50 in the assay on SNB-19 CNS was 2.53 µM and > 6.7 µM; in the assay on UO-31 renal, 0.288 µM and 0.103 µM. Besides, the TGI in the assay on ACHN renal is 2.11 µM and > 10 µM; in the assay with MCF7 breast, 7.01 µM and > 10 µM; in the assay with NCI-H226 lung it was 5.59 µM and > 10 µM; in the assay on NCI/ADR-RES ovarian it was 8.79 µM and > 10 µM; with OVCAR-3 ovarian, 4.63 µM and > 8.9 µM; in the assay on SF-268 CNS, 5.13 µM and > 10 µM. In addition, the TGI in the assay on SNB-19 CNS was 14.7 µM and > 10 µM; with UO-31 renal, 12.9 µM and > 8.65 µM.
For the molecule `CCn1c2ccc(O)cc2c2c(C)c3c[n+](C)ccc3c(C)c21`, the GI50 is 8.85 µM in the assay on ACHN renal; 2.65 µM in the assay on MCF7 breast; 0.896 µM in the assay on NCI-H226 lung; 31.1 µM with NCI/ADR-RES ovarian; 3.59 µM in the assay with OVCAR-3 ovarian; 0.122 µM in the assay on SF-268 CNS. In addition, the GI50 was 0.272 µM in the assay with SNB-19 CNS and 14.9 µM with UO-31 renal. Further, the TGI was over 100 µM in the assay on ACHN renal; 23.4 µM with MCF7 breast; 27.6 µM in the assay on NCI-H226 lung; over 100 µM with NCI/ADR-RES ovarian; 32.4 µM in the assay with OVCAR-3 ovarian; 4.33 µM in the assay on SF-268 CNS. Further, the TGI was 6.88 µM with SNB-19 CNS and over 100 µM with UO-31 renal.
With `CCn1c(-c2nonc2N)nc2c(C#CC(C)(C)O)nc(OCCNC)cc21`, the GI50 with ACHN renal was 8.29 µM; in the assay with MCF7 breast, 4.9 µM; with NCI-H226 lung, 8.09 µM; in the assay with NCI/ADR-RES ovarian, over 25 µM; in the assay with OVCAR-3 ovarian, 6.16 µM; in the assay with SF-268 CNS, 7.94 µM. The figures for the GI50 in the assay with SNB-19 CNS and in the assay with UO-31 renal were 8.4 µM and 8.9 µM, respectively. Further, the concentration for total growth inhibition (TGI) with ACHN renal is over 25 µM; in the assay with MCF7 breast it was over 25 µM; with NCI-H226 lung it was over 23.1 µM; in the assay on NCI/ADR-RES ovarian, over 25 µM; in the assay with OVCAR-3 ovarian it was 17.7 µM; in the assay with SF-268 CNS, over 25 µM. Further, the TGI in the assay on SNB-19 CNS and in the assay on UO-31 renal was over 25 µM in each case.
For the molecule `Cc1cc(Cl)ccc1Nc1nc(C(F)(F)F)ccc1C(=O)N/N=C/c1ccc([N+](=O)[O-])cc1`, the GI50 with ACHN renal is 1.08 µM; with MCF7 breast, 1.58 µM; with NCI-H226 lung, 1.58 µM; in the assay on NCI/ADR-RES ovarian it was 1.98 µM; in the assay on OVCAR-3 ovarian, 0.777 µM; with SF-268 CNS, 0.86 µM. Besides, the GI50 was 3.61 µM in the assay on SNB-19 CNS and 1.48 µM with UO-31 renal. The TGI in the assay on ACHN renal is 5.14 µM; with MCF7 breast, 6.93 µM; in the assay on NCI-H226 lung, 4.27 µM; in the assay with NCI/ADR-RES ovarian it was over 32.5 µM; in the assay with OVCAR-3 ovarian, 2.63 µM; with SF-268 CNS, 5.45 µM. Also, the results for the TGI in the assay with SNB-19 CNS and in the assay with UO-31 renal were over 100 µM and 6.93 µM, respectively.
Turning to `COC(=O)c1nc(Cl)nc(Cl)c1Cl`, the TGI in the assay with ACHN renal is 27.7 µM; in the assay on MCF7 breast, 55.1 µM; in the assay on NCI-H226 lung, 64.4 µM; with NCI/ADR-RES ovarian, over 100 µM; with OVCAR-3 ovarian, 16.8 µM; with SF-268 CNS, over 100 µM. Moreover, the TGI was over 100 µM with SNB-19 CNS and 35.7 µM in the assay with UO-31 renal.
On to `COc1ccc(C2=NN(C=O)C(c3cccc(Nc4ccnc5cc(Cl)ccc45)c3)C2)cc1` (stereo not given), for which the GI50 in the assay on ACHN renal is 4.59 µM; with MCF7 breast, 1.59 µM; in the assay with NCI-H226 lung it was 3.13 µM; with NCI/ADR-RES ovarian it was 1.66 µM; in the assay on OVCAR-3 ovarian, 1.97 µM; in the assay with SF-268 CNS, 4.8 µM. Also, the GI50 in the assay with SNB-19 CNS is 5.11 µM; with UO-31 renal, 3.25 µM. Also, the TGI in the assay with ACHN renal was 62.7 µM; with MCF7 breast it was 39.4 µM; in the assay with NCI-H226 lung, over 100 µM; in the assay on NCI/ADR-RES ovarian it was 31.7 µM; with OVCAR-3 ovarian, 12.5 µM; with SF-268 CNS it was 88.7 µM. Moreover, the figures for the TGI in the assay on SNB-19 CNS and with UO-31 renal were over 100 µM and 64.6 µM, respectively.
